Data on 3 compounds can be found in PMC7464559, “Synthesis, Optimization, Antifungal Activity, Selectivity, and CYP51 Binding of New 2-Aryl-3-azolyl-1-indolyl-propan-2-ols” (Pharmaceuticals, 2020).

Converted amounts (≈) assume the structure as drawn. “Also recorded” adds a separate entry of the source.

Test [1] relates to C. albicans CA98001. In words: Anti-Candida in vitro assay (Alamar Blue), C. albicans CA98001. The class given is cell-based. The conditions noted are these: for MIC: Candida albicans, CA98001, 24 h, MIC = IC80, 24 h at 37 °C, mean of triplicate; for Times more active than FLC against C. albicans CA98001: ratio of MIC values versus FLC. The gist of the method: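 Yeasts at 10^3 cells/mL final in RPMI 1640 with 0.165 M MOPS, 2% glucose and antibiotics were exposed to serially diluted compounds in triplicate for 24 h at 37 °C. Viability was then read by Alamar Blue fluorescence (ex 550/em 590 nm) after 4 h; MIC is the triplicate mean.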

Test [2] deals with T1, aromatase (CYP19) (Homo sapiens, UniProt P11511).
T1 construct: Microsomal protein (0.1 mg) was added to start the reaction; from tissue; host or cells: microsomes; ('human placental microsomes')
T1 sequence (P11511 1-503): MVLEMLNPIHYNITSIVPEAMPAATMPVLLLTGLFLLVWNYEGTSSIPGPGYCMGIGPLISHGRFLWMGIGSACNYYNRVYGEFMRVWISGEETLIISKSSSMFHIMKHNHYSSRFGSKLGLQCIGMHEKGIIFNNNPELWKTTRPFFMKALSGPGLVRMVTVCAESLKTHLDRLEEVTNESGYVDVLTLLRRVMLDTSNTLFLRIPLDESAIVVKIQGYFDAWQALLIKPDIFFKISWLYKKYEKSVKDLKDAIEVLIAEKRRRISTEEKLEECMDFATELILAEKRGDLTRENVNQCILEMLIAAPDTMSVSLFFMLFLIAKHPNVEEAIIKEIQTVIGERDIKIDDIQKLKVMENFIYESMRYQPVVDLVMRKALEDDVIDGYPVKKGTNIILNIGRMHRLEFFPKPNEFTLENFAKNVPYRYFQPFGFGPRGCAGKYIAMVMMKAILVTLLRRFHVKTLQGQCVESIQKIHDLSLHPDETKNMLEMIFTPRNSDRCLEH
In words: In vitro inhibition of aromatase. It counts as biochemical. To be noted: at 36 µM.
Method: The assay was performed according to previously described methods [49, 50, 51] by monitoring the enzyme activity by measuring the ^3H2O formed from [1β-^3H]androstenedione during aromatization. […] Microsomal protein (0.1 mg) was added to start the reaction. After incubation of 15 min at 30 °C, the reaction was stopped by adding 200 µL of a cold HgCl2 solution (1 mM). After the addition of 200 µL of an aqueous dextran-coated charcoal (DCC) suspension (2%), the vials were shaken then centrifuged to separate the charcoal-absorbed steroids. Aliquots of the supernatant were assayed for ^3H2O by counting in a scintillation mixture using a LKB-Wallac β-counter.

Test [3] concerns the target T2, 11β-hydroxylase (CYP11B1) (Homo sapiens, UniProt P15538).
T2 construct: expressed in transfected cells; host or cells: Schizosaccharomyces pombe strain SZ1
T2 sequence (P15538 25-503): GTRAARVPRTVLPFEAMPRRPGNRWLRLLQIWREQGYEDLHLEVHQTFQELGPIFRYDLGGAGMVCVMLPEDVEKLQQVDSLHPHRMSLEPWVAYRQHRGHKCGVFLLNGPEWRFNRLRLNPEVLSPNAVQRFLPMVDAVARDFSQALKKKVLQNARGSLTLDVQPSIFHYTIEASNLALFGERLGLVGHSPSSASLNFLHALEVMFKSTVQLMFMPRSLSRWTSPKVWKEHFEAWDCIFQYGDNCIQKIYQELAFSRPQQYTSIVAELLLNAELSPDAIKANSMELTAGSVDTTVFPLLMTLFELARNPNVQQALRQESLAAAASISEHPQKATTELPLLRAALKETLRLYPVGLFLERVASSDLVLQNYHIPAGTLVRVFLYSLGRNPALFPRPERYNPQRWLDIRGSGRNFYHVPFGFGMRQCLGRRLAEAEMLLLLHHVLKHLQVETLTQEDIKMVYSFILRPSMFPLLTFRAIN
Put plainly: In vitro inhibition of CYP11B1 (Schizosaccharomyces pombe SZ1). The class given is cell-based. To be noted: inhibitor 100 nM to 5 µM, three to four independent experiments. As for the experimental part:
(§1) For the CYP11B1 assay, 11-deoxycortisol (RSS) was used as substrate, whereas 11-deoxycorticosterone (DOC) was used for the CYP11B2 assay. These non-radioactive steroids were purchased from Sima (Deisenhofen, Germany). Radioactive steroids were obtained from Amersham Pharmacia Biotech (Freiburg, Germany). Two Schizosaccharomyces pombe strains were used, SZ1 expressing CYP11B1 and MB164 expressing CYP11B2. The assays were performed as described previously by Bureik et al.. Exponentially growing fission yeast cells were cultivated by shaking and with good aeration at 30 °C in 500 µL Edinburgh Minimal Medium Glutamate (EMMG) containing supplements as required. Inhibitors were dissolved in ethanol at different concentrations, and equal volumes of ethanolic solutions were used in all cases (including controls). Final concentrations of inhibitors ranged from 100 nM to 5 µM. Cells were preincubated with the respective inhibitor solutions for 15 min prior to the addition of steroid substrates (100 nM DOC or 100 nM RSS, respectively). For detection of steroids, 1% of the total substrate amount was radioactively labeled as [^3H]RSS, [^3H]DOC, or [^14C]DOC. After 4 h (MB164) or 24 h (SZ1) cultures were extracted with chloroform and dried under vacuum. The residues were dissolved in 10 µL chloroform and spotted onto glass-backed silica-coated HPTLC plates (Kieselgel 60 F254, Merck; Darmstadt, Germany). In addition, small amounts of non-radioactive steroids were spotted as references. The HPTLC was developed twice in chloroform/methanol/water (300:20:1, v/v/v) and steroids identified after exposure to Fuji imaging plates and quantitated on a phosphoimager (BAS-2500, Fuji; Stamford, CT, USA).

For test [4], the target named is T3, aldosterone synthase (CYP11B2) (Homo sapiens, UniProt P19099).
T3 construct: expressed in transfected cells; host or cells: Schizosaccharomyces pombe strain MB164
T3 sequence (P19099 25-503): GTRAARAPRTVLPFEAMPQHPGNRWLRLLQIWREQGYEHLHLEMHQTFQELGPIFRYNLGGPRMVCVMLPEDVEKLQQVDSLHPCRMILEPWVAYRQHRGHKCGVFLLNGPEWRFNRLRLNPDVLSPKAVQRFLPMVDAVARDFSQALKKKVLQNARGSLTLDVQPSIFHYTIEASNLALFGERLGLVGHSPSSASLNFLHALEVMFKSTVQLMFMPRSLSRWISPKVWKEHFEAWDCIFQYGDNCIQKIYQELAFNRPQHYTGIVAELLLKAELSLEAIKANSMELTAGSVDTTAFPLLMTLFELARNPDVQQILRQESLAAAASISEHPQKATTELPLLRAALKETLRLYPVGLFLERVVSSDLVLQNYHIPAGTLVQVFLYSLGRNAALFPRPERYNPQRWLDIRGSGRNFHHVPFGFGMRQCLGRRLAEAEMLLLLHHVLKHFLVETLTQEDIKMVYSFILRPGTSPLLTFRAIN
Put plainly: In vitro inhibition of CYP11B2 (Schizosaccharomyces pombe MB164). It counts as cell-based. The conditions noted are these: inhibitor 100 nM to 5 µM, three to four independent experiments. The method, then:
as §1

For the compound `O[C@@](Cn1cncn1)(Cn1ccc2ccccc21)c1ccc(Cl)cc1Cl` [(+)-(R)-8g], the MIC in test [1] was 23 ng/mL (≈ 59.4 nM). In test [2], this compound yielded an inhibition at 36 µM of 51%. Moreover, the CYP11B1 inhibition effect result in test [3] is reported as “no inhibition”. The CYP11B2 inhibition effect result in test [4] is given as “slight inhibitory effect; also recorded: slight inhibition”.

For the compound `OC(Cn1cncn1)(Cn1ccc2ccccc21)c1ccc(Cl)cc1Cl` (centres unmarked) [Compound 8g, 2-(2,4-Dichlorophenyl)-3-(1H-indol-1-yl)-1-(1H-1,2,4-triazol-1-yl)-propan-2-ol], in test [1], the MIC came to 0.259 ng/mL (≈ 0.669 nM) and the “Times more active than FLC against C. albicans CA98001” value was “≈ 80”. The same compound displayed an inhibition at 36 µM in test [2] of 27%. Moreover, the CYP11B1 inhibition effect result in test [3] was “no inhibitory activity; also recorded: no inhibition”. The CYP11B2 inhibition effect entry in test [4] is given as “slight inhibitory effect; also recorded: slight inhibition”.

As for `O[C@](Cn1cncn1)(Cn1ccc2ccccc21)c1ccc(Cl)cc1Cl` [(−)-(S)-8g], in test [1], the MIC amounted to 0.256 ng/mL (≈ 0.661 nM) and the “Times more active than FLC against C. albicans CA98001” value was “≈ 80”. For the same compound, at 36 µM the inhibition in test [2] was 72%. The CYP11B1 inhibition effect entry in test [3] is listed as “no inhibition”. In addition, the CYP11B2 inhibition effect result in test [4] is given as “no inhibition”.
